{"source": "ChEMBL document CHEMBL1933046", "about": "“Synthesis and antibacterial activity of a novel series of acylides active against community acquired respiratory pathogens” (2012)", "type_in_all_cases": "functional", "key": {"[1]": {"tested_on": "Streptococcus pneumoniae", "assay": "Antibacterial activity against Streptococcus pneumoniae 994 expressing mef gene by NCCLS method"}, "[2]": {"tested_on": "Streptococcus pyogenes", "assay": "Antibacterial activity against Streptococcus pyogenes 19615 by NCCLS method"}, "[3]": {"tested_on": "Haemophilus influenzae", "assay": "Antibacterial activity against Haemophilus influenzae 38 by NCCLS method"}, "[4]": {"tested_on": "Moraxella catarrhalis", "assay": "Antibacterial activity against Moraxella catarrhalis 8176 by NCCLS method"}, "[5]": {"tested_on": "Streptococcus pneumoniae", "assay": "Antibacterial activity against Streptococcus pneumoniae 6303 by NCCLS method"}, "[6]": {"tested_on": "Streptococcus pneumoniae", "assay": "Antibacterial activity against Streptococcus pneumoniae 49619 by NCCLS method"}, "[7]": {"tested_on": "Streptococcus pneumoniae", "assay": "Antibacterial activity against Streptococcus pneumoniae 3579 expressing erm gene by NCCLS method"}, "[8]": {"tested_on": "Streptococcus pneumoniae", "assay": "Antibacterial activity against Streptococcus pneumoniae by NCCLS method"}}}
{"smiles": "C=CCN(C)[C@H]1C[C@@H](C)O[C@@H](O[C@@H]2[C@@H](C)[C@H](OC(=O)Cc3ccccn3)[C@@H](C)C(=O)O[C@H](CC)[C@@]3(C)OC(=O)N(CCCCn4cnc(-c5ccccc5)c4)[C@@H]3[C@@H](C)C(=O)[C@H](C)C[C@@]2(C)OC)[C@@H]1O", "values": [{"measurement": "MIC", "setting": "[1]", "value": 0.25, "unit": "µg/mL"}, {"measurement": "MIC", "setting": "[2]", "value": 0.03, "unit": "µg/mL"}, {"measurement": "MIC", "setting": "[3]", "value": "< 0.06", "unit": "µg/mL"}, {"measurement": "MIC", "setting": "[4]", "value": 0.25, "unit": "µg/mL"}, {"measurement": "MIC", "setting": "[5]", "value": 0.06, "unit": "µg/mL"}, {"measurement": "MIC", "setting": "[6]", "value": 0.03, "unit": "µg/mL"}, {"measurement": "MIC", "setting": "[7]", "value": 0.5, "unit": "µg/mL"}]}
{"smiles": "C=CCN(C)[C@H]1C[C@@H](C)O[C@@H](O[C@@H]2[C@@H](C)[C@H](OC(=O)Cc3ccccn3)[C@@H](C)C(=O)O[C@H](CC)[C@@]3(C)OC(=O)N(CCCCn4cnc5cnccc54)[C@@H]3[C@@H](C)C(=O)[C@H](C)C[C@@]2(C)OC)[C@@H]1O", "values": [{"measurement": "MIC", "setting": "[1]", "value": 0.25, "unit": "µg/mL"}, {"measurement": "MIC", "setting": "[2]", "value": 0.03, "unit": "µg/mL"}, {"measurement": "MIC", "setting": "[3]", "value": "< 0.06", "unit": "µg/mL"}, {"measurement": "MIC", "setting": "[4]", "value": 0.06, "unit": "µg/mL"}, {"measurement": "MIC", "setting": "[5]", "value": 0.06, "unit": "µg/mL"}, {"measurement": "MIC", "setting": "[6]", "value": 0.03, "unit": "µg/mL"}, {"measurement": "MIC", "setting": "[7]", "value": 0.25, "unit": "µg/mL"}]}
{"smiles": "CC[C@H]1OC(=O)[C@H](C)[C@@H](O[C@H]2C[C@@](C)(OC)[C@@H](O)[C@H](C)O2)[C@H](C)[C@@H](O[C@@H]2O[C@H](C)C[C@H](N(C)C)[C@H]2O)[C@](C)(O)C[C@@H](C)C(=O)[C@H](C)[C@@H](O)[C@]1(C)O", "note": "[ERYTHROMYCIN]", "values": [{"measurement": "MIC", "setting": "[1]", "value": 0.5, "unit": "µg/mL"}, {"measurement": "MIC", "setting": "[2]", "value": 0.015, "unit": "µg/mL"}, {"measurement": "MIC", "setting": "[3]", "value": "> 16", "unit": "µg/mL"}, {"measurement": "MIC", "setting": "[4]", "value": 8, "unit": "µg/mL"}, {"measurement": "MIC", "setting": "[8]", "value": 0.25, "unit": "µg/mL"}, {"measurement": "MIC", "setting": "[5]", "value": 0.25, "unit": "µg/mL"}, {"measurement": "MIC", "setting": "[6]", "value": 0.125, "unit": "µg/mL"}, {"measurement": "MIC", "setting": "[7]", "value": 8, "unit": "µg/mL"}]}
{"smiles": "CC[C@H]1OC(=O)[C@H](C)[C@@H](OC(=O)Cc2cccnc2)[C@H](C)[C@@H](O[C@@H]2O[C@H](C)C[C@H](N(C)CC)[C@H]2O)[C@](C)(OC)C[C@@H](C)C(=O)[C@H](C)[C@H]2N(CCCCn3cnc(-c4cccnc4)c3)C(=O)O[C@]12C", "values": [{"measurement": "MIC", "setting": "[1]", "value": 0.125, "unit": "µg/mL"}, {"measurement": "MIC", "setting": "[2]", "value": 0.03, "unit": "µg/mL"}, {"measurement": "MIC", "setting": "[3]", "value": 1, "unit": "µg/mL"}, {"measurement": "MIC", "setting": "[4]", "value": 0.125, "unit": "µg/mL"}, {"measurement": "MIC", "setting": "[5]", "value": 0.06, "unit": "µg/mL"}, {"measurement": "MIC", "setting": "[6]", "value": 0.03, "unit": "µg/mL"}, {"measurement": "MIC", "setting": "[7]", "value": 2, "unit": "µg/mL"}]}
{"smiles": "CC[C@H]1OC(=O)[C@H](C)[C@@H](OC(=O)Cc2ccccn2)[C@H](C)[C@@H](O[C@@H]2O[C@H](C)C[C@H](N(C)CC)[C@H]2O)[C@](C)(OC)C[C@@H](C)C(=O)[C@H](C)[C@H]2N(CCCCn3cnc(-c4ccc(N)nc4)c3)C(=O)O[C@]12C", "values": [{"measurement": "MIC", "setting": "[1]", "value": 0.125, "unit": "µg/mL"}, {"measurement": "MIC", "setting": "[2]", "value": 0.06, "unit": "µg/mL"}, {"measurement": "MIC", "setting": "[3]", "value": 0.125, "unit": "µg/mL"}, {"measurement": "MIC", "setting": "[4]", "value": 0.25, "unit": "µg/mL"}, {"measurement": "MIC", "setting": "[5]", "value": 0.06, "unit": "µg/mL"}, {"measurement": "MIC", "setting": "[6]", "value": 0.06, "unit": "µg/mL"}, {"measurement": "MIC", "setting": "[7]", "value": 0.25, "unit": "µg/mL"}]}
{"smiles": "C=CCN(C)[C@H]1C[C@@H](C)O[C@@H](O[C@@H]2[C@@H](C)[C@H](OC(=O)Cc3ccccn3)[C@@H](C)C(=O)O[C@H](CC)[C@@]3(C)OC(=O)N(CCCCn4cnc(-c5cncnc5)c4)[C@@H]3[C@@H](C)C(=O)[C@H](C)C[C@@]2(C)OC)[C@@H]1O", "values": [{"measurement": "MIC", "setting": "[1]", "value": 0.06, "unit": "µg/mL"}, {"measurement": "MIC", "setting": "[2]", "value": 0.03, "unit": "µg/mL"}, {"measurement": "MIC", "setting": "[3]", "value": "< 0.06", "unit": "µg/mL"}, {"measurement": "MIC", "setting": "[4]", "value": 0.125, "unit": "µg/mL"}, {"measurement": "MIC", "setting": "[5]", "value": 0.03, "unit": "µg/mL"}, {"measurement": "MIC", "setting": "[6]", "value": 0.03, "unit": "µg/mL"}, {"measurement": "MIC", "setting": "[7]", "value": 0.25, "unit": "µg/mL"}]}
{"smiles": "C=CCN(C)[C@H]1C[C@@H](C)O[C@@H](O[C@@H]2[C@@H](C)[C@H](OC(=O)Cc3cccnc3)[C@@H](C)C(=O)O[C@H](CC)[C@@]3(C)OC(=O)N(CCCCn4ccc5cccnc54)[C@@H]3[C@@H](C)C(=O)[C@H](C)C[C@@]2(C)OC)[C@@H]1O", "values": [{"measurement": "MIC", "setting": "[1]", "value": 0.25, "unit": "µg/mL"}, {"measurement": "MIC", "setting": "[2]", "value": 0.03, "unit": "µg/mL"}, {"measurement": "MIC", "setting": "[3]", "value": "< 0.03", "unit": "µg/mL"}, {"measurement": "MIC", "setting": "[4]", "value": 0.06, "unit": "µg/mL"}, {"measurement": "MIC", "setting": "[5]", "value": 0.06, "unit": "µg/mL"}, {"measurement": "MIC", "setting": "[6]", "value": 0.06, "unit": "µg/mL"}, {"measurement": "MIC", "setting": "[7]", "value": 8, "unit": "µg/mL"}]}
{"smiles": "C=CCN(C)[C@H]1C[C@@H](C)O[C@@H](O[C@@H]2[C@@H](C)[C@H](OC(=O)Cc3ccccn3)[C@@H](C)C(=O)O[C@H](CC)[C@@]3(C)OC(=O)N(CCCCn4cnc5cncnc54)[C@@H]3[C@@H](C)C(=O)[C@H](C)C[C@@]2(C)OC)[C@@H]1O", "values": [{"measurement": "MIC", "setting": "[1]", "value": 0.125, "unit": "µg/mL"}, {"measurement": "MIC", "setting": "[2]", "value": 0.06, "unit": "µg/mL"}, {"measurement": "MIC", "setting": "[3]", "value": "< 0.06", "unit": "µg/mL"}, {"measurement": "MIC", "setting": "[4]", "value": 0.125, "unit": "µg/mL"}, {"measurement": "MIC", "setting": "[5]", "value": 0.06, "unit": "µg/mL"}, {"measurement": "MIC", "setting": "[6]", "value": 0.06, "unit": "µg/mL"}, {"measurement": "MIC", "setting": "[7]", "value": 0.25, "unit": "µg/mL"}]}
{"smiles": "C=CCN(C)[C@H]1C[C@@H](C)O[C@@H](O[C@@H]2[C@@H](C)[C@H](OC(=O)Cc3cccnc3)[C@@H](C)C(=O)O[C@H](CC)[C@@]3(C)OC(=O)N(CCCCn4cnc(-c5ccc(N)nc5)c4)[C@@H]3[C@@H](C)C(=O)[C@H](C)C[C@@]2(C)OC)[C@@H]1O", "values": [{"measurement": "MIC", "setting": "[1]", "value": 0.06, "unit": "µg/mL"}, {"measurement": "MIC", "setting": "[2]", "value": 0.06, "unit": "µg/mL"}, {"measurement": "MIC", "setting": "[3]", "value": 0.125, "unit": "µg/mL"}, {"measurement": "MIC", "setting": "[4]", "value": 0.125, "unit": "µg/mL"}, {"measurement": "MIC", "setting": "[5]", "value": 0.06, "unit": "µg/mL"}, {"measurement": "MIC", "setting": "[6]", "value": 0.125, "unit": "µg/mL"}, {"measurement": "MIC", "setting": "[7]", "value": 0.125, "unit": "µg/mL"}]}
{"smiles": "C=CCN(C)[C@H]1C[C@@H](C)O[C@@H](O[C@@H]2[C@@H](C)[C@H](OC(=O)Cc3ccccn3)[C@@H](C)C(=O)O[C@H](CC)[C@@]3(C)OC(=O)N(CCCCn4cnc5cccnc54)[C@@H]3[C@@H](C)C(=O)[C@H](C)C[C@@]2(C)OC)[C@@H]1O", "values": [{"measurement": "MIC", "setting": "[1]", "value": 0.5, "unit": "µg/mL"}, {"measurement": "MIC", "setting": "[2]", "value": 0.125, "unit": "µg/mL"}, {"measurement": "MIC", "setting": "[3]", "value": "< 0.06", "unit": "µg/mL"}, {"measurement": "MIC", "setting": "[4]", "value": 0.125, "unit": "µg/mL"}, {"measurement": "MIC", "setting": "[5]", "value": 0.125, "unit": "µg/mL"}, {"measurement": "MIC", "setting": "[6]", "value": 0.06, "unit": "µg/mL"}, {"measurement": "MIC", "setting": "[7]", "value": 0.5, "unit": "µg/mL"}]}
{"smiles": "C=CCN(C)[C@H]1C[C@@H](C)O[C@@H](O[C@@H]2[C@@H](C)[C@H](OC(=O)Cc3ccccn3)[C@@H](C)C(=O)O[C@H](CC)[C@@]3(C)OC(=O)N(CCCCn4cnc5ccncc54)[C@@H]3[C@@H](C)C(=O)[C@H](C)C[C@@]2(C)OC)[C@@H]1O", "values": [{"measurement": "MIC", "setting": "[1]", "value": 0.125, "unit": "µg/mL"}, {"measurement": "MIC", "setting": "[2]", "value": 0.125, "unit": "µg/mL"}, {"measurement": "MIC", "setting": "[3]", "value": 0.06, "unit": "µg/mL"}, {"measurement": "MIC", "setting": "[4]", "value": 0.06, "unit": "µg/mL"}, {"measurement": "MIC", "setting": "[5]", "value": 0.125, "unit": "µg/mL"}, {"measurement": "MIC", "setting": "[6]", "value": 0.125, "unit": "µg/mL"}, {"measurement": "MIC", "setting": "[7]", "value": 0.25, "unit": "µg/mL"}]}
